The nature of experiment [1]: DPPH radical scavenging activity assay. Conditions: for DPPH clearance rate: 30 min, 517 nm, n = 3. From the text:
In the DPPH molecule, due to the presence of multiple electron-withdrawing —NO2 and large π bonds of the benzene ring, nitrogen free radical is stabilized. Its methanol solution is purple and has a maximum absorption peak at 517 nm. After the addition of an antioxidant, DPPH captures an electron to be paired with the free electron, and the purple fades and turns into a yellow substance. The absorption at 517 nm disappears, and the degree of fading is quantitatively related to the number of electrons it captures. Based on this principle, a spectrophotometer is used to detect the change of the absorbance of the DPPH radical and the sample solution, and the ability of the sample to provide hydrogen atoms and scavenge free radicals can be measured. […] Vc (positive control), cinnamyl alcohol retinoic acid ester (sample), cinnamyl alcohol (control) and retinoic acid (control). The sample solution was subjected to gradient dilution with toluene, and three sets of controls were separately dissolved in a test tube with a certain amount of toluene to prepare the same concentration gradient as the sample. [table] […] Clearance calculation: Clearance Rate (%)=[1−(Ai−Aj)/Ao]*100%
(DPPH is a stable violet radical that fades when it is reduced.)

In experiment [2] the test system is Multi-resistant Staphylococcus aureus 18-596. Nature of the experiment: Paper diffusion drug sensitivity test, multi-resistant Staphylococcus aureus 18-596. The following applies: for Zone of inhibition: drug sensitive paper 6.35 mm, test drugs 30 μg/tablet, 37° C. 24 h; for Antibacterial effect (in words): summary of Table 4.
Experiment [3] deals with Multi-resistant Pseudomonas aeruginosa 18-202. The experiment can be described thus: Paper diffusion drug sensitivity test, multi-resistant Pseudomonas aeruginosa 18-202. Conditions: for Zone of inhibition: drug sensitive paper 6.35 mm, test drugs 30 μg/tablet, 37° C. 24 h; for Antibacterial effect (in words): summary of Table 4.

Take `CC1=C(/C=C/C(C)=C/C=C/C(C)=C/C(=O)OC/C=C/c2ccccc2)C(C)(C)CCC1` [Cinnamyl alcohol retinoic acid ester, (2E,4E,6E,8E)-cinnamyl 3,7-dimethyl-9-(2,6,6-trimethylcyclohex-1-en-1-yl)nona-2,4,6,8-tetraenoate]: the DPPH clearance rate is 13.16% in experiment [1] (1.76 ppm in toluene); 17.53% in experiment [1] (8.80 ppm in toluene); 31.95% in experiment [1] (21.12 ppm in toluene); 42.08% in experiment [1] (42.24 ppm in toluene); 68.62% in experiment [1] (79.20 ppm in toluene); 75.46% in experiment [1] (112.64 ppm in toluene). Moreover, the DPPH clearance rate came to 79.44% in experiment [1] (281.60 ppm in toluene), 83.15% in experiment [1] (492.80 ppm in toluene), 90.77% in experiment [1] (792.00 ppm in toluene) and 95.43% in experiment [1] (915.20 ppm in toluene). For the same compound, the “Antioxidant activity (in words)” value in experiment [1] (summary) was “excellent antioxidant activity”. In addition, the values for the Zone of inhibition in experiment [2] and in experiment [3] were 20 mm and 21 mm, respectively. The “Antibacterial effect (in words)” value in experiment [2] and in experiment [3] was “strong resistance” in each case.
In the case of `OCC=Cc1ccccc1` [Cinnamyl alcohol, cinnamyl alcohol], the DPPH clearance rate is listed as 6.89% in experiment [1] (1.76 ppm in toluene); 7.95% in experiment [1] (8.80 ppm in toluene); 17.86% in experiment [1] (21.12 ppm in toluene); 25.71% in experiment [1] (42.24 ppm in toluene); 37.96% in experiment [1] (79.20 ppm in toluene); 44.56% in experiment [1] (112.64 ppm in toluene). The DPPH clearance rate in experiment [1] (281.60 ppm in toluene) came to 59.23%; in experiment [1] (492.80 ppm in toluene) it was 64.94%; in experiment [1] (792.00 ppm in toluene), 73.54%; in experiment [1] (915.20 ppm in toluene) it was 75.82%. Besides, the Zone of inhibition in experiment [2] is 14 mm; in experiment [3], 6 mm. Also, the “Antibacterial effect (in words)” value in experiment [2] and in experiment [3] was “little inhibitory effect” throughout.
As to `CC1=C(/C=C/C(C)=C/C=C/C(C)=C/C(=O)O)C(C)(C)CCC1` [Retinoic acid, retinoic acid], the Zone of inhibition turned out to be 8 mm in experiment [2] and 7 mm in experiment [3].
For the compound `CN[C@H](CC(C)C)C(=O)N[C@H]1C(=O)N[C@@H](CC(N)=O)C(=O)N[C@H]2C(=O)N[C@H]3C(=O)N[C@H](C(=O)N[C@H](C(=O)O)c4cc(O)cc(O)c4-c4cc3ccc4O)[C@H](O)c3ccc(c(Cl)c3)Oc3cc2cc(c3O[C@@H]2O[C@H](CO)[C@@H](O)[C@H](O)[C@H]2O[C@H]2C[C@](C)(N)[C@H](O)[C@H](C)O2)Oc2ccc(cc2Cl)[C@H]1O` [Vancomycin], the Zone of inhibition in experiment [2] is recorded as 21 mm; in experiment [3], 9 mm.
As to `O=C1O[C@H]([C@@H](O)CO)C(O)=C1O` [Vc], the DPPH clearance rate in experiment [1] (1.76 ppm in toluene) is reported as 23.16%; in experiment [1] (8.80 ppm in toluene) it was 33.47%; in experiment [1] (21.12 ppm in toluene), 79.63%; in experiment [1] (42.24 ppm in toluene), 89.55%; in experiment [1] (79.20 ppm in toluene), 97.42%; in experiment [1] (112.64 ppm in toluene) it was 97.53%. Moreover, the DPPH clearance rate worked out at 98.29% in experiment [1] (281.60 ppm in toluene), 99.06% in experiment [1] (492.80 ppm in toluene), 99.10% in experiment [1] (792.00 ppm in toluene) and 99.28% in experiment [1] (915.20 ppm in toluene).
With Gentamicin, the figures for the Zone of inhibition in experiment [2] and in experiment [3] were 10 mm and 21 mm, respectively.

(Values after patent US11072575B1, “Method of preparing a cinnamyl alcohol retinoic acid ester with antioxidant and antibacterial activities” (priority 2020, dated 2021).)
